Results reported in patent US8334261B2, “Osteopenia animal model” (Oriental Yeast Co., Ltd., priority 2006, dated 2012).

How the values were obtained:
Type in all cases: in vivo, mouse
[1] = system: 7-week-old female C57BL/6N mice; test: Evaluation of a bone mass increase with PTH (GST-RANKL, ovariectomy)
Description: GST-RANKL was administered twice to groups of 7-week-old female C57BL/6N mice at 1 mg/kg every 24 hours. Ovariectomy was performed 24 hours after the 2nd administration. In addition, parathyroid hormone (PTH) was subcutaneously administered thereto at 160 μg/kg from 24 hours after the ovariectomy for 10 consecutive days. Further, a group obtained by PBS administration and sham operation (Sham) was designated as a control group for comparison. The serum markers and the femur bone density were measured.

[2] = system: GST-RANKL-administered 7-week-old female C57BL/6N mice; test: Evaluation of a bone mass increase with low-dose PTH in GST-RANKL mice; conditions: PTH 80 μg/kg; 1.0 mm
[3] = system: GST-RANKL-administered 7-week-old female C57BL/6N mice; test: as above
Description: GST-RANKL was intraperitoneally administered 2 times to groups of 7-week-old female C57BL/6N mice at 1 mg/kg every 24 hours. PTH was subcutaneously administered thereto at 40 or 80 μg/kg from 24 hours after the 2nd administration every 24 hours for 10 consecutive days. In addition, PBS was administered to a group serving as the control group for the GST-RANKL and PTH administration groups for comparison. The serum and femur were collected from each mouse 24 hours after the end of administration for 10 days.
The serum collected from each mouse was subjected to measurement of serum bone resorption markers (Ca and TRAP-5b) and an osteogenesis marker (ALP). Each femur was subjected to measurement of the total bone density, the cortical bone density, the cortical bone thickness, the cortical bone mineral content, and the cortical bone density in the diaphysis with pQCT at points 0.6, 0.8, and 1.0 mm […] the distal growth plate on the proximal side. In addition, image analysis was carried out with micro CT.

## parathyroid hormone [PTH]
[1]; PTH 160 μg/kg administered to the GST-RANKL+Sham group, p<0.05
  bone density decrease: significantly suppressed
[1]; PTH 160 μg/kg administered to the PBS+Sham group
  femur bone density: significantly increased exclusively at the 1.0-mm point
[1]; PTH 160 μg/kg in the OVX group
  femur bone density increase: no significant difference
[1]; every PTH administration group, 160 μg/kg s.c. 10 consecutive days
  serum TRAP-5b concentration, fold as high as the relevant group not treated with PTH: approximately 1.5 fold
[2]
  cortical bone density increase in GST-RANKL administration group: 3%
[3]; PTH 40 μg/kg
  cortical bone density in the diaphysis, increase in GST-RANKL group: 3%
  serum ALP concentration in GST-RANKL group: tended to decrease
[3]; PTH 40 μg/kg, 0.6 mm
  cancellous bone density increase in GST-RANKL group vs PBS: 25%
  cortical bone mineral content increase in GST-RANKL group vs PBS: 80%
  cortical bone thickness increase in GST-RANKL group vs PBS: 86%
  total bone density increase in GST-RANKL group vs PBS: 14%
[3]; PTH 40 μg/kg, 0.8 mm
  cancellous bone density increase in GST-RANKL group vs PBS: 28%
  cortical bone density increase in GST-RANKL group vs PBS: 4%
  cortical bone mineral content increase in GST-RANKL group vs PBS: 123%
  cortical bone thickness increase in GST-RANKL group vs PBS: 127%
  total bone density increase in GST-RANKL group vs PBS: 17%
[3]; PTH 40 μg/kg, 1.0 mm
  cortical bone density increase in GST-RANKL group vs PBS: 5%
  cortical bone mineral content increase in GST-RANKL group vs PBS: 100%
  cortical bone thickness increase in GST-RANKL group vs PBS: 98%
  total bone density increase in GST-RANKL group vs PBS: 19%
[3]; PTH 80 μg/kg
  cortical bone density in the diaphysis, increase in GST-RANKL group: 3%
[3]; PTH 80 μg/kg, 0.6 mm
  cancellous bone density increase in GST-RANKL group: 20%
  cortical bone mineral content increase in GST-RANKL group: 46%
  cortical bone thickness increase in GST-RANKL group: 50%
  total bone density increase in GST-RANKL group: 10%
[3]; PTH 80 μg/kg, 0.8 mm
  cortical bone mineral content increase in GST-RANKL group: 83%
  cortical bone thickness increase in GST-RANKL group: 89%
  total bone density increase in GST-RANKL group: 13%
[3]; PTH 80 μg/kg, 1.0 mm
  cortical bone mineral content increase in GST-RANKL group: 77%
  cortical bone thickness increase in GST-RANKL group: 79%
  total bone density increase in GST-RANKL group: 13%
[3]; PTH 80 μg/kg, p<0.01
  serum ALP concentration in GST-RANKL group: significantly decreased
[3]; PTH 80 μg/kg, p<0.05
  serum Ca concentration in GST-RANKL group: slightly significant decrease
[3]; PTH 40 or 80 μg/kg s.c. 10 days
  serum TRAP-5b concentration: no significant changes
